In assay [1] the test system is hPSC-derived lateral plate mesoderm / splanchnic mesoderm cultures. Nature of the assay: RT-PCR of marker genes in hPSC-derived lateral plate/splanchnic mesoderm cultures (Example 9). The note with it: primitive SM treated d4-d7. Type of assay: cell-based, human. The method, then:
Differentiation of hPSCs into lateral plate mesoderm was induced using previously described methods with modifications. In brief, partially confluent hPSCs were dissociated into very fine clumps in Accutase (Invitrogen) and passaged 1:18 onto new Geltrex-coated 24-well plates for immunocytochemistry and 12-well plates for RNA preparation in mTeSR1 with 1 μM thiazovivin (Tocris) ([…]). Next day, a brief wash with DMEM/F12 was followed with Day 0 medium (30 ng/mL Activin A (Cell Guidance Systems), 40 ng/mL. BMP4 (R&D Systems), 6 μM CHIR99021 (Tocris), 20 ng/mL FGF2 (Thermo Fisher), 100 nM PIK90 (EMD Millipore)) for 24 hours. A basal media composed of Advanced DMEM/F12, N2, B27, 15 mM HEPES, 2 mM […], penicillin-streptomycin was used for this Day 0 medium and all subsequent differentiations. On Day 1, a brief wash with DMEM/F12 was followed with Day 1 medium (1 μM A83-01 (Tocris), 30 ng/mL BMP4, 1 μM C59 (Cellagen Technology)) for 24 hours. For cardiac mesoderm generation, cells were cultured in 1 μM A83-01, 30 ng/mL BMP4, 1 μM C59, 20 ng/mL FGF2 from Day 2 to Day 4 (medium changed every day). From Day 4, cells were cultured in 200 μg/mL 2-phospho-ascorbic acid (Sigma), 1 μM XAV939 (Sigma), 30 ng/mL BMP4 for 3 days. […] Significance was determined by one-way ANOVA, followed by Tukey's test.

Assay [2] deals with hPSC-derived mesoderm. Kind of assay: Quantitative RT-PCR gene expression of differentiating mesoderm (Example 11). The class given is cell-based, human. The note with it: longer and higher levels of Wnt activation (CHIR timing). As for the experimental part:
Total RNA was prepared from differentiating human ES cells by using Nucleospin kit according to manufacturer's protocol. Reverse transcription PCR was performed by Superscript VILO cDNA synthesis kit. QuantStudio 5 and 6 were used for qPCR analyses. Statistics were performed with PRISM8 (GraphPad Software). Significance was determined by one-way ANOVA, followed by Tukey's test.
After SpM differentiation, the cells can be observed with an inverted microscope. The cells should be at 100% confluency (FIG. 9A). The efficiency of SpM induction can be checked by immunostaining for FOXF1 and/or ISL1, or expression of relative gene profiles as provided in Table 1.
The efficiency of organ-specific mesoderm differentiation can be checked by immunostaining for WT1, PITX1, FOXF1, NKX6.1, and/or TBX5, or expression of relative gene profiles as provided in Table 1.

This is an account of results in patent publication US20260002121A1, “IMPROVED METHODS OF PREPARING DIFFERENT MESODERM CELL TYPES” (Children's Hospital Medical Center, priority 2021, published 2026).

Take `c1ccc2c(Oc3nc(Nc4ccc(N5CCOCC5)cc4)c4ncn(C5CCCCC5)c4n3)cccc2c1` [HH-agonist, purmorphamine]: the “organ-specific SM-like lineage identity (gene expression)” value in assay [1] is “promoted gut tube identity and efficiently blocked the hepatic fate”. Regarding `Cc1c[nH]c(-c2cnc(NCCNc3ccc(C#N)cn3)nc2-c2ccc(Cl)cc2Cl)n1` [CHIR, CHIR99021], in assay [2], the NKX6-1 expression entry is given as “suppressed” and the WNT2 expression entry is recorded as “promoted”.
